These are literature values, as cited in US20180221406A1, “THERAPEUTIC COMBINATIONS OF ANTIVIRAL AND ANTI-INFLAMMATORY THERAPIES” (Foresight Biotherapeutics, Inc., priority 2015, published 2018).

Data set [1] deals with respiratory syncytial virus (RSV). To be noted: in vivo.
The subject of data set [2] is acute rhinosinusitis principally of viral origin. The conditions noted are these: in vivo.

For `C[C@@H]1C[C@H]2[C@@H]3CCC4=CC(=O)C=C[C@]4(C)[C@@]3(F)[C@@H](O)C[C@]2(C)[C@@]1(O)C(=O)CO` [dexamethasone, (8S,9R,10S,11S,13S,14S,16R,17R)-9-fluoro-11,17-dihydroxy-17-(2-hydroxyacetyl)-10,13,16-trimethyl-6,7,8,11,12,14,15,16-octahydrocyclopenta[a]phenanthren-3-one], the “Efficacy in bronchiolitis caused by RSV” value in data set [1] is listed as “ineffective”.
On to `C[C@]12C=CC(=O)C=C1CC[C@@H]1[C@@H]2[C@@H](O)C[C@@]2(C)[C@H]1CC[C@]2(O)C(=O)CO` [prednisolone], for which the “Efficacy in uncomplicated acute rhinosinusitis” value in data set [2] was “ineffective”.
